The results in this text go back to patent publication US12503475B2 (Centessa Pharmaceuticals (UK) Limited, priority 2020, dated 2025).

The assay has as its target T1, human orexin type 2 receptor (hOX2R) (Homo sapiens, UniProt O43614).
T1 construct: expressed in transfected cells
T1 sequence (O43614 1-444): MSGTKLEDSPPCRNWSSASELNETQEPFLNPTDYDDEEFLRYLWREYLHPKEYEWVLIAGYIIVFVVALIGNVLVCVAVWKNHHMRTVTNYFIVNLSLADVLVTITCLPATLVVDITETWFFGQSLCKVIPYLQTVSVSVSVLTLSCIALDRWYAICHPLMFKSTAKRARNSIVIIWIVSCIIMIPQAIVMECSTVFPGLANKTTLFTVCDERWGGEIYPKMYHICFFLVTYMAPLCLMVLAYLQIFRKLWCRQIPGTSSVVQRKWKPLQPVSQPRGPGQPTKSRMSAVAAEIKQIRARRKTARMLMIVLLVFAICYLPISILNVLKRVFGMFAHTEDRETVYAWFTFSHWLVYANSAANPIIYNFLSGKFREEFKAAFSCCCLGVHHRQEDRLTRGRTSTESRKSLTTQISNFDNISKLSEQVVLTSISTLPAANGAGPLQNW
Nature of the assay: Measurement of orexin type 2 receptor agonist activity (FLIPR calcium fluorescence). The assay is classed as cell-based. The note with it: CHO cells expressing hOX2R, FLIPR calcium fluorescence; for EC50: read-out: hOx2 pEC50 (converted); for Emax: CHO, read-out: hOx2 Emax (%). On the procedure:
The biological activity of the compounds of the present disclosure may be determined in cells stably expressing either orexin type 2 or orexin type 1 receptor. […] The agonist activity of a compound of the present disclosure may be determined by fluorescence value.
Stable cell line generation.
Measurement of orexin type 2 receptor agonist activity. […] As used herein, E. indicates the value at 10 μM concentration when orexin A is converted to a full agonist (maximum value of agonist activity. 100%).

“And” between values parts separate entries of the source, which are not always exact repeats. Equal values may be shown once.

By Emax is commonly meant the maximal effect, on the per cent scale that the assay sets. Take `CC(F)C(=O)N1CC2(CC2)C(NS(C)(=O)=O)C1Cc1cccc(-c2ccccc2)c1` (single isomer, unassigned) [Compound 1, N-(6-([1,1′-biphenyl]-3-ylmethyl)-5-(2-fluoropropanoyl)-5-azaspiro[2.4]heptan-7-yl)methanesulfonamide]: the EC50 is 10 to 100 nM and the Emax was 70 to 80%.

For `CC(F)C(=O)N1CC2(CC2)C(NS(C)(=O)=O)C1Cc1cccc(-c2ccccc2)c1` (single isomer, unassigned) [Compound 2, N-(6-([1,1′-biphenyl]-3-ylmethyl)-5-(2-fluoropropanoyl)-5-azaspiro[2.4]heptan-7-yl)methanesulfonamide], the “hOx2 Emax (%)” value was “C (Emax ranging between 70 and 80)”; the EC50 is 100 to 1000 nM.

For `N#C[C@@]1(C(=O)N2CC3(CC3)[C@H](NS(=O)(=O)CF)[C@@H]2Cc2cccc(-c3ccccc3)c2F)CCO1` (single isomer, unassigned) [Compound 225], the EC50 was 1 to 10 nM and the maximal response (Emax) fell in the range of 90 to 100%.

For the molecule `CCS(=O)(=O)NC1C(Cc2cc(F)cc(-c3ccccc3)c2F)N(C(=O)[C@H](O)CF)CC12CC2` (stereo in doubt) [Compound 356, N-((6S,7S)-6-((2,5-difluoro-[1,1′-biphenyl]-3-yl)methyl)-5-((S)-3-fluoro-2-hydroxypropanoyl)-5-azaspiro[2.4]heptan-7-yl)ethanesulfonamide], the EC50 was 10 to 100 nM and the maximal effect (Emax) fell in the range of 90 to 100%.

As for `CC(C)C(=O)N1CC2(CC2)[C@@H](NS(C)(=O)=O)[C@H]1Cc1cccc(-c2ccccc2)c1` [Compound 16, N-((6R,7R)-6-([1,1′-biphenyl]-3-ylmethyl)-5-isobutyryl-5-azaspiro[2.4]heptan-7-yl)methanesulfonamide], the EC50 was 100 to 1000 nM and the Emax is 50 to 60%.

Consider `CC(C)C(=O)N1CC2(CC2)[C@H](NS(C)(=O)=O)[C@@H]1Cc1cccc(-c2ccccc2)c1` [Compound 17, N-((6S,7S)-6-([1,1′-biphenyl]-3-ylmethyl)-5-isobutyryl-5-azaspiro[2.4]heptan-7-yl)methanesulfonamide], for which the EC50 was 10 to 100 nM and the Emax lay within 90 to 100%.

Regarding `CS(=O)(=O)N[C@H]1[C@@H](Cc2cccc(-c3ccccc3)c2F)N(C(=O)[C@@H]2CCO2)CC12CC2` [Compound 19, N-((6R,7R)-6-((2-fluoro-[1,1′-biphenyl]-3-yl)methyl)-5-((S)-oxetane-2-carbonyl)-5-azaspiro[2.4]heptan-7-yl)methanesulfonamide], the EC50 was more than 1000 nM and the maximum response (Emax) is 90 to 100%.

On to `CS(=O)(=O)N[C@@H]1[C@H](Cc2cccc(-c3ccccc3)c2F)N(C(=O)[C@@H]2CCO2)CC12CC2` [Compound 20, N-((6S,7S)-6-((2-fluoro-[1,1′-biphenyl]-3-yl)methyl)-5-((S)-oxetane-2-carbonyl)-5-azaspiro[2.4]heptan-7-yl)methanesulfonamide], for which the EC50 is 10 to 100 nM and the Emax was in the range of 90 to 100%.

As for `CS(=O)(=O)N[C@@H]1[C@H](Cc2cccc(-c3ccccc3)c2F)N(C(=O)[C@H]2CCO2)CC12CC2` [Compound 21, N-((6S,7S)-6-((2-fluoro-[1,1′-biphenyl]-3-yl)methyl)-5-((R)-oxetane-2-carbonyl)-5-azaspiro[2.4]heptan-7-yl)methanesulfonamide], the EC50 is 1 to 10 nM and the Emax was in the range of 90 to 100%.

Regarding `CS(=O)(=O)N[C@H]1[C@@H](Cc2cccc(-c3ccccc3)c2F)N(C(=O)[C@H]2CCO2)CC12CC2` [Compound 22, N-((6R,7R)-6-((2-fluoro-[1,1′-biphenyl]-3-yl)methyl)-5-((R)-oxetane-2-carbonyl)-5-azaspiro[2.4]heptan-7-yl)methanesulfonamide], the EC50 was 100 to 1000 nM and the maximal effect (Emax) was in the range of 90 to 100%.

As to `CS(=O)(=O)N[C@H]1[C@@H](Cc2cccc(-c3cccc(F)c3)c2F)N(C(=O)N2CCC2)CC12CC2` [Compound 26, N-((6R,7R)-5-(azetidine-1-carbonyl)-6-((2,3′-difluoro-[1,1′-biphenyl]-3-yl)methyl)-5-azaspiro[2.4]heptan-7-yl)methanesulfonamide], the EC50 was 10 to 100 nM and the maximal effect (Emax) was 90 to 100%.

`CS(=O)(=O)N[C@@H]1[C@H](Cc2cccc(-c3cccc(F)c3)c2F)N(C(=O)N2CCC2)CC12CC2` [Compound 27, N-((6S,7S)-5-(azetidine-1-carbonyl)-6-((2,3′-difluoro-[1,1′-biphenyl]-3-yl)methyl)-5-azaspiro[2.4]heptan-7-yl)methanesulfonamide]: the EC50 is 1 to 10 nM and 0.0794 to 1 nM; the Emax is 90 to 100%.

With `CS(=O)(=O)N[C@H]1[C@@H](Cc2cccc(-c3cc(F)cc(F)c3)c2F)N(C(=O)N2CCC2)CC12CC2` [Compound 31, N-((6R,7R)-5-(azetidine-1-carbonyl)-6-((2,3′,5′-trifluoro-[1,1′-biphenyl]-3-yl)methyl)-5-azaspiro[2.4]heptan-7-yl)methanesulfonamide], the EC50 is 10 to 100 nM and the Emax was 90 to 100%.

Turning to `CS(=O)(=O)N[C@@H]1[C@H](Cc2cccc(-c3cc(F)cc(F)c3)c2F)N(C(=O)N2CCC2)CC12CC2` [Compound 32, N-((6S,7S)-5-(azetidine-1-carbonyl)-6-((2,3′,5′-trifluoro-[1,1′-biphenyl]-3-yl)methyl)-5-azaspiro[2.4]heptan-7-yl)methanesulfonamide], the EC50 was 0.0794 to 1 nM and the Emax lay in the range of 90 to 100%.

As for `CS(=O)(=O)N[C@@H]1[C@H](Cc2cccc(-c3cc(F)cc(F)c3)c2F)N(C(=O)C2CCC2)CC12CC2` [Compound 33, N-((6S,7S)-5-(cyclobutanecarbonyl)-6-((2,3′,5′-trifluoro-[1,1′-biphenyl]-3-yl)methyl)-5-azaspiro[2.4]heptan-7-yl)methanesulfonamide], the EC50 was 0.0794 to 1 nM and the Emax was 90 to 100%.

As for `CC(C)(O)C(=O)N1CC2(CC2)[C@H](NS(C)(=O)=O)[C@@H]1Cc1cccc(-c2cc(F)cc(F)c2)c1F` [Compound 34, N-((6S,7S)-5-(2-hydroxy-2-methylpropanoyl)-6-((2,3′,5′-trifluoro-[1,1′-biphenyl]-3-yl)methyl)-5-azaspiro[2.4]heptan-7-yl)methanesulfonamide], the EC50 is 1 to 10 nM and the Emax lay in the range of 90 to 100%.

With `CS(=O)(=O)N[C@@H]1[C@H](Cc2cccc(-c3ccccc3)c2F)N(C(=O)N2CCC2)CC12CC2` [Compound 35, N-((6S,7S)-5-(azetidine-1-carbonyl)-6-((2-fluoro-[1,1′-biphenyl]-3-yl)methyl)-5-azaspiro[2.4]heptan-7-yl)methanesulfonamide], the EC50 was 1 to 10 nM and the Emax lay in the range of 90 to 100%.

Turning to `CS(=O)(=O)N[C@@H]1[C@H](Cc2cccc(-c3cc(F)cc(F)c3)c2F)N(C(=O)[C@H]2CCO2)CC12CC2` [Compound 39, N-((6S,7S)-5-((R)-oxetane-2-carbonyl)-6-((2,3′,5′-trifluoro-[1,1′-biphenyl]-3-yl)methyl)-5-azaspiro[2.4]heptan-7-yl)methanesulfonamide], the EC50 is 1 to 10 nM and the maximal effect (Emax) lay in the range of 90 to 100%.

For the molecule `CS(=O)(=O)N[C@@H]1[C@H](Cc2cccc(-c3ccccc3F)c2)N(C(=O)[C@H]2CCO2)CC12CC2` [Compound 40, N-((6S,7S)-6-((2′-fluoro-[1,1′-biphenyl]-3-yl)methyl)-5-((R)-oxetane-2-carbonyl)-5-azaspiro[2.4]heptan-7-yl)methanesulfonamide], the EC50 was 10 to 100 nM and the maximal response (Emax) lay in the range of 90 to 100%.
